Data set [1] can be described thus: Pharmacokinetics in mice, drug levels by mass spectrometry. The class given is in vivo. To be noted: for concentration at […]: 0.25 hr.
Description: Serum samples were obtained at fixed time intervals, and the drug levels determined by mass spectrometry.
Data set [2] has as its target T1, endogenous AR with a mutation (T877A), LNCaP cells (Homo sapiens, UniProt P10275, T878A).
T1 construct: that each express endogenous AR; endogenous in cells; host or cells: LNCaP
T1 sequence (P10275 1-920 T878A): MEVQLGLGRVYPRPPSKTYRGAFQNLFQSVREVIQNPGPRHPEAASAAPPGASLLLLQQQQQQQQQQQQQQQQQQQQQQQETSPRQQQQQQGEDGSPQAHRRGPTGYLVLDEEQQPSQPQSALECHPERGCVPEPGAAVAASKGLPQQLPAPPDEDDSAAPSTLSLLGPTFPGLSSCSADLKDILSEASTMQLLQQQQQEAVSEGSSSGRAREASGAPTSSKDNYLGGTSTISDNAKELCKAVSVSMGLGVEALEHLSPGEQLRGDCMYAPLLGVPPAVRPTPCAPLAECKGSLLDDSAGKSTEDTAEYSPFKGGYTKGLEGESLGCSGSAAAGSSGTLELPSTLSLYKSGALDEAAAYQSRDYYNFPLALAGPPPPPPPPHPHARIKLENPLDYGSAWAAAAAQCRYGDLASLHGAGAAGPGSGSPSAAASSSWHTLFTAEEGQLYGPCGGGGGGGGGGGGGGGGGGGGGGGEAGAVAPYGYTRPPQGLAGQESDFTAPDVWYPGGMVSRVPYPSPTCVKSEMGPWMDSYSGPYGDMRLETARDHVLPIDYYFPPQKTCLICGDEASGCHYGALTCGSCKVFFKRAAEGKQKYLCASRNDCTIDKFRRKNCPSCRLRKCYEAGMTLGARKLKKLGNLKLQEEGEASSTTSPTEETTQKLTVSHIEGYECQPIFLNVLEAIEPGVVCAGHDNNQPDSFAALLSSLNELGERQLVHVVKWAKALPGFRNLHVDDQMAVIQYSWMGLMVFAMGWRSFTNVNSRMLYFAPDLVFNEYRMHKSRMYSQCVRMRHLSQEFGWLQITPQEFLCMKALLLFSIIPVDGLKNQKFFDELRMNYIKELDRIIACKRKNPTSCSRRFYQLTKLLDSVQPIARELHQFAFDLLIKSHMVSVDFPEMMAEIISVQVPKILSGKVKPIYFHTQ
The data set can be described thus: PSA-luciferase reporter assay in LNCaP cells with DHT. It counts as cell-based. On the procedure:
(§1) Cells were transfected with two reporter plasmids, a PSA-luciferase construct (androgen responsive), and an SV40-renilla luciferase construct as an internal control. The following day, the cells were split and drugs added in the presence of 3 nM DHT. Luciferase production was measured the following day (Dual luciferase assay kit, Promega).
(§2) Synergism can be defined as a combination index of less than one, using the non-exclusive assumption described by Chou et al. (Chou, T. C. and P. Talalay, Quantitative analysis of dose-effect relationships: the combined effects of multiple drugs or enzyme inhibitors. Adv Enzyme Regul, 1984. 22: p. 27-55).
(Reporter assays use an easily measured gene product as a stand-in for the process of interest.)

The target in data set [3] is T2, endogenous wild-type AR, LAPC4 cells (Homo sapiens, UniProt P10275).
T2 construct: that each express endogenous AR; endogenous in cells; host or cells: LAPC4
T2 sequence (P10275 1-920): T1 sequence (P10275 1-920 T878A) with A878T
The data set can be described thus: PSA-luciferase reporter assay in LAPC4 cells with DHT. The class given is cell-based. To be noted: 3 nM DHT. On the procedure: as §1, §2

For another data set, the system named is LAPC4 cells. Briefly: Cell proliferation (DNA content, DAPI), LAPC4. The class given is cell-based, human. As to conditions: LAPC4, 3 nM DHT, seven days; PP 100 nM, HH 100 nM, BiC 1 μM. The text has this:
(§3) LN-AR cells were created by retroviral infection of a high-expressing AR vector into LNCaP cells, and proliferate independent of androgen in cell culture, unlike their parental line (Chen, C. D., et al., Molecular determinants of resistance to antiandrogen therapy. Nat Med, 2004. 10(1): p. 33-9). HEK293 cells were used as a control. Cells were transferred to charcoal-stripped media two days before they were split and plated in quadruplicate at a density of approximately 20,000 cells/well in 48-well plates. […] Media were changed every day, using a single preparation to ensure consistent compound concentrations. Proliferation was determined by measuring the DNA content of the cells in each well. Each day, the cells in four wells were fixed in 100% cold methanol, followed by staining for 5 min at RT with 0.2 ng/mL 4′,6-diamidino-2-phenylindole (DAPI) in PBS. The cells were washed once in PBS, then read on a fluorescence plate reader using 365/439 excitation/emission wavelengths. LAPC4 and LNCaP cells proliferated to a much greater degree in the presence of DHT, while LN-AR cells proliferated in the presence and absence of DHT.

For another data set, the system named is HEK293 cells. Briefly: Cell proliferation (DNA content, DAPI), HEK293 control. The class given is cell-based. To be noted: HEK293, seven days; PP 100 nM, HH 100 nM, BiC 1 μM.
Description: as §3

The values below come from patent publication US8119660B2, “Small-molecule inhibitors of the androgen receptor” (The Regents of the University of California, priority 2007, dated 2012).

Molecules are shown by their SMILES. Positions count from the first letter of the chain named. “Also recorded” adds a separate entry of the source. Counter-ions that a name gives are not always drawn.

The IC50 is the concentration that inhibits the measured activity by half. With `Cc1nccc2c1[nH]c1cc(O)ccc12` [HH, harmol hydrochloride], the concentration at […] came out at 32.3 ng/mL in data set [1] (FVB, mouse, plasma, mice, IP, 5 mg/kg single dose) and 6.7 ng/mL in data set [1] (FVB, mouse, plasma, mice, PO, 5 mg/kg single dose). The molecule also registered a concentration at 1 h in data set [1] (FVB, mouse, plasma, mice, IP, 5 mg/kg single dose, 1 hr) of 5 ng/mL. Further, in data set [1] (Wild-type FVB mice, single intraperitoneal injection), the “Clearance / half-life in words” value is “rapidly cleared”. Further, the concentration for half-maximal inhibition (IC50) was determined as 127 nM in data set [2] (LNCaP cells, 3 nM DHT) and 106 nM in data set [3]. Also, in data set [2] (LNCaP, DHT titrated, moderate dose of each inhibitor, hydrochloride), the “Mode of antagonism: effect on DHT dose-response of PSA-luciferase” value was “inhibited maximal DHT-induced activation; also recorded: pattern consistent with a non-competitive antagonist”. Moreover, the “Inhibition of cell growth” value in the data set with LAPC4 cells is “not effective”. Also, the “Non-specific growth inhibition of control cells” value in the data set with HEK293 cells is “Neither compound exhibited non-specific growth inhibition”.
